Measurements published in patent US12583818B2 (DAEGU-GYEONGBUK MEDICAL INNOVATION FOUNDATION, priority 2020, dated 2026).
Where two headings read alike, the source gives them in different places.

Experiments:
[1] = target: T1, Pin1 (Homo sapiens, UniProt Q13526); test: Evaluation of Pin1 enzyme inhibitory activity (Sensolyte Green Pin1 assay kit); format: biochemical
T1 construct: purchased Anaspec
Experimental: In order to evaluate the Pin1 enzyme inhibitory activity of the compound represented by formula 1 according to the present invention, the following experiment was performed, and the results are shown in Table 2 below.
The enzyme activity of Pin1 protein was measured using a sensolyte Green Pin1 assay kit of Anaspec. The substrate was diluted in a buffer at a ratio of 1:100 to prepare a concentration of 1 μM, and the protein was diluted in a buffer at a ratio of 1:20 to prepare a concentration of 50 μg/ml. In addition, a developing solution was prepared by diluting thereof in a buffer at a ratio of 1:100.
The compound prepared in each example was diluted with DMSO and prepared at a concentration of 100 μM, 10 μM, 1 μM or 0.1 μM using a buffer. After sequentially adding 10 μl of the compound prepared in each Example diluted to four concentrations according to the above method, 10 μl of Pin1 protein, and 30 μl of the developing solution to each well of a black 96-well plate, […]. Finally, 50 μl of the substrate was added to each well of the plate, and the enzyme reaction was carried out after shaking the plate for 10 seconds.
Then, the plate was incubated for 2 hours at room temperature in an environment without light, and the fluorescence values at 490 nm/520 nm wavelength were measured using a device of Synergy Neo […]. The results are shown in Table 2 below by dividing the grades of A to D for each concentration (μM) at which the Pin1 enzyme activity is inhibited.

[2] = test system: A2780 cells (ovarian cancer cells); test: Cell viability of A2780 cells (Cell-titer Glo); format: cell-based; settings: Homo sapiens
Experimental: (§1) In order to confirm the inhibitory effect of the compound represented by formula 1 according to the present invention on the growth of MCF7, MCF7-SP, A2780 or A2780-SP cells, the following experiment was performed, and the results are shown in Tables 4 and 5 below.
In addition, A2780 cells (ovarian cancer cells) were plated in a 96-well plate at the density of 3000 viable cells per well, and cultured in RPMI-1640 medium supplemented with 10% FBS and 1% penicillin/streptomycin.
(§2) On the next day of culture, the cells were treated with the compound of Examples 57, and 69 to 144, followed by culture for 3 days. Cell viability was evaluated by Cell-titer Glo (Promega, WC, USA), and luciferase activity was detected using a Tecan plate reader (Biocompare, USA).

[3] = test system: A2780-SP cells (ovarian cancer stem cells); test: Sphere cell viability of A2780-SP cells (Cell-titer Glo); format: cell-based
Experimental: as §1
On the other hand, A2780-SP cells (ovarian cancer stem cells) were plated in an Ultra-Low Attachment round bottom 96-well plate (corning) at the density of 1,500 viable cells per well, and cultured in cancer stem cell medium. The cancer stem cell medium is composed of the neurobasal medium supplemented with 20 ng/ml of bFGF, 10 ng/ml of EGF, […] of amphotericin B, HEPES, Glutamax and B27.
as §2, with “for 8” for “for 3”, “days. The medium containing the compound was added thereto once again on the 4th day. Sphere cell” for “days. Cell”

[4] = concentration at which the Pin1 enzyme activity is inhibited, 2 hours at room temperature, fluorescence 490 nm/520 nm, read-out: Pin 1 inhibition
[5] = 72 h, cell viability, culture for 3 days, read-out: A2780
[6] = 192 h, sphere cell viability, culture for 8 days, read-out: A2780-SP
[7] = Table 2, read-out: concentration at which Pin1 inhibitory activity was exhibited
[8] = A2780, Table 5, read-out: A2780 cell concentration
[9] = Table 5, read-out: the concentration (second list of b710, cell line not named; matches A2780-SP column)

T1 sequence (Q13526 whole entry): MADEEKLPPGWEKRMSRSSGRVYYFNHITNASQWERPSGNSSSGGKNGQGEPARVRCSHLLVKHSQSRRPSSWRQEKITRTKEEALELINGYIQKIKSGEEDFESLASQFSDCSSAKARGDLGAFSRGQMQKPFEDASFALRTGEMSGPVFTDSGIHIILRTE

| SMILES | IC50 [1, 4] [nM] | IC50 [3, 6] [nM] | IC50 [1, 7] [nM] | also measured |
| --- | --- | --- | --- | --- |
| O=S(=O)(NCCCc1c[nH]c2ccc(Cl)cc12)c1cccc(OCCCN2CCCCC2)c1 [Example 95, N-(3-(5-chloro-1H-indol-3-yl)propyl)-3-(3-(piperidin-1-yl)propoxy)benzenesulfonamide] | 1000 to 10000 | 1000 to 10000 | – | IC50 [2, 5]: > 10000 nM |
| O=S(=O)(NCCCc1c[nH]c2ccc(Cl)cc12)c1ccc(OCCCN2CCCC2)cc1 [Example 100, N-(3-(5-chloro-1H-indol-3-yl)propyl)-4-(3-(pyrrolidin-1-yl)propoxy)benzenesulfonamide] | < 1000 | < 1000 | < 1000 | IC50 [2, 5]: 1000 to 10000 nM; IC50 [2, 8]: < 10000 nM; IC50 [3, 9]: < 1000 nM |
| C[C@@H]1CN(CCCOc2ccc(S(=O)(=O)NCCCc3c[nH]c4ccc(Cl)cc34)cc2)CCN1 [Example 108, (R)—N-(3-(5-chloro-1H-indol-3-yl)propyl)-4-(3-(3-methylpiperazin-1-yl)propoxy)benzenesulfonamide] | < 1000 | < 1000 | < 1000 | IC50 [2, 5]: 1000 to 10000 nM; IC50 [2, 8]: < 10000 nM; IC50 [3, 9]: < 1000 nM |
| O=S(=O)(NCCCc1c[nH]c2ccc(Cl)cc12)c1ccc(NCCCN2CCNCC2)cc1 [Example 113, N-(3-(5-chloro-1H-indole-3-yl)propyl)-4-((3-(piperazine-1-yl)propyl)amino)benzenesulfonamide] | < 1000 | 1000 to 10000 | < 1000 | – |
| O=S(=O)(NCCCc1c[nH]c2ccc(Cl)cc12)c1ccc(NCCCN2CCCCC2)cc1 [Example 114, N-(3-(5-chloro-1H-indol-3-yl)propyl)-4-((3-(piperidin-1-yl)propyl)amino)benzenesulfonamide] | < 1000 | 1000 to 10000 | < 1000 | – |
| CN1CCC(CCCCc2ccc(S(=O)(=O)NCCCc3c[nH]c4ccc(Cl)cc34)cc2)CC1 [Example 115, N-(3-(5-chloro-1H-indol-3-yl)propyl)-4-(4-(1-methylpiperidin-4-yl)butyl)benzenesulfonamide] | < 1000 | < 1000 | < 1000 | IC50 [3, 9]: < 1000 nM |
| O=S(=O)(NCCCc1c[nH]c2ccc(Cl)cc12)c1ccc(OCC2(CN3CCNCC3)CC2)cc1 [Example 117, N-(3-(5-chloro-1H-indol-3-yl)propyl)-4-((1-(piperazin-1-ylmethyl)cyclopropyl)methoxy)benzenesulfonamide] | < 1000 | 1000 to 10000 | < 1000 | – |
| CN1CCN(c2cccc(Nc3ccc(S(=O)(=O)NCCCc4c[nH]c5ccc(Cl)cc45)cc3)n2)CC1 [Example 131, N-(3-(5-chloro-1H-indol-3-yl)propyl)-4-((6-(4-methylpiperazin-1-yl)pyridin-2-yl)amino)benzenesulfonamide] | 1000 to 10000 | – | – | – |
| O=S(=O)(NCCCc1c[nH]c2ccc(Cl)cc12)c1ccc(Nc2cccc(N3CCNCC3)n2)cc1 [Example 132, N-(3-(5-chloro-1H-indol-3-yl)propyl)-4-((6-(piperazin-1-yl)pyridin-2-yl)amino)benzenesulfonamide] | 1000 to 10000 | – | – | – |
| O=S(=O)(NCCCc1c[nH]c2ccc(Cl)cc12)c1ccc(Oc2cccc(N3CCCC3)c2)cc1 [Example 135, N-(3-(5-chloro-1H-indol-3-yl)propyl)-4-(3-(pyrrolidin-1-yl)phenoxy)benzenesulfonamide] | 1000 to 10000 | – | – | – |
| O=S(=O)(NCCCc1c[nH]c2ccc(Cl)cc12)c1ccc(Oc2cccc(N3CCC(O)CC3)c2)cc1 [Example 136, N-(3-(5-chloro-1H-indol-3-yl)propyl)-4-(3-(4-hydroxypiperidin-1-yl)phenoxy)benzenesulfonamide] | 1000 to 10000 | – | – | – |
| O=S(=O)(NCCCc1c[nH]c2ccc(Cl)cc12)c1ccc(Nc2cccc(N3CCC(O)CC3)c2)cc1 [Example 139, N-(3-(5-chloro-1H-indol-3-yl)propyl)-4-((3-(4-hydroxypiperidin-1-yl)phenyl)amino)benzenesulfonamide] | 1000 to 10000 | – | – | – |
| CN1CCN(c2cc(Cl)nc(Nc3ccc(S(=O)(=O)NCCCc4c[nH]c5ccc(Cl)cc45)cc3)c2)CC1 [Example 140, N-(3-(5-chloro-1H-indol-3-yl)propyl)-4-((6-chloro-4-(4-methylpiperazin-1-yl)pyridin-2-yl)amino)benzenesulfonamide] | < 1000 | 1000 to 10000 | < 1000 | – |
| CN1CCN(c2cc(Nc3ccc(S(=O)(=O)NCCCc4c[nH]c5ccc(Cl)cc45)cc3)nc(N3CCN(C)CC3)c2)CC1 [Example 141, 4-((4,6-bis(4-methylpiperazin-1-yl)pyridin-2-yl)amino)-N-(3-(5-chloro-1H-indol-3-yl)propyl)benzenesulfonamide] | < 1000 | 1000 to 10000 | < 1000 | – |
| CN1CCN(c2ccc(Nc3ccc(S(=O)(=O)NCCCc4c[nH]c5ccc(Cl)cc45)cc3)cc2)CC1 [Example 142, N-(3-(5-chloro-1H-indol-3-yl)propyl)-4-((4-(4-methylpiperazin-1-yl)phenyl)amino)benzenesulfonamide] | 1000 to 10000 | – | – | – |
| CN1CCN(CCCOc2ccc(C(=O)NCCCc3c[nH]c4ccc(Cl)cc34)cc2)CC1 [Example 143, N-(3-(5-chloro-1H-indole-3-yl)propyl)-4-(3-(4-methylpiperazine-1-yl)propoxy)benzamide] | < 1000 | 1000 to 10000 | < 1000 | – |
| O=C(NCCCc1c[nH]c2ccc(Cl)cc12)c1ccc(OCCCN2CCNCC2)cc1 [Example 144, N-(3-(5-chloro-1H-indol-3-yl)propyl)-4-(3-(piperazin-1-yl)propoxy)benzamide] | 1000 to 10000 | – | – | – |
| O=S(=O)(NCCCc1c[nH]c2ccc(-c3ccccc3)cc12)c1ccc(OCCCN2CCNCC2)cc1 [Example 155, N-(3-(5-phenyl-1H-indol-3-yl)propyl)-4-(3-(piperazin-1-yl)propoxy)benzenesulfonamide] | 1000 to 10000 | – | – | – |
| CN1CCN(CCCOc2ccc(S(=O)(=O)NCCCc3c[nH]c4ccc(-c5ccccc5)cc34)cc2)CC1 [Example 156, 4-(3-(4-methylpiperazin-1-yl)propoxy)-N-(3-(5-phenyl-1H-indol-3-yl)propyl)benzenesulfonamide] | 1000 to 10000 | – | – | – |
| CN1CCN(CCCOc2ccc(S(=O)(=O)NCCCc3c[nH]c4ccc(Cl)cc34)cc2)CC1=O [Example 162, N-(3-(5-chloro-1H-indol-3-yl)propyl)-4-(3-(4-methyl-3-oxopiperazin-1-yl)propoxy)benzenesulfonamide] | 1000 to 10000 | – | – | – |
| O=C1CN(CCCOc2ccc(S(=O)(=O)NCCCc3c[nH]c4ccc(Cl)cc34)cc2)CCN1 [Example 163, N-(3-(5-chloro-1H-indol-3-yl)propyl)-4-(3-(3-oxopiperazin-1-yl)propoxy)benzenesulfonamide] | 1000 to 10000 | – | – | – |
| CN1CCN(CCCOc2ccc(S(=O)(=O)NC3CCCC(c4c[nH]c5ccc(Cl)cc45)C3)cc2)CC1 (stereo not shown) [Example 179, N-(3-(5-chloro-1H-indol-3-yl)cyclohexyl)-4-(3-(4-methylpiperazin-1-yl)propoxy)benzenesulfonamide] | 1000 to 10000 | – | – | – |
| O=S(=O)(NC1CCCC(c2c[nH]c3ccc(Cl)cc23)C1)c1ccc(OCCCN2CCNCC2)cc1 (stereo not shown) [Example 180, N-(3-(5-chloro-1H-indol-3-yl)cyclohexyl)-4-(3-(piperazin-1-yl)propoxy)benzenesulfonamide] | 1000 to 10000 | – | – | – |
| CN1CCN(CCCOc2ccc(S(=O)(=O)Nc3ccccc3C(C)(C)c3c[nH]c4ccc(Cl)cc34)cc2)CC1 [Example 181, N-(2-(2-(5-chloro-1H-indole-3-yl)propane-2-yl)phenyl)-4-(3-(4-methylpiperazine-1-yl)propoxy)benzenesulfonamide] | 1000 to 10000 | – | – | – |
| CC(C)(c1ccccc1NS(=O)(=O)c1ccc(OCCCN2CCNCC2)cc1)c1c[nH]c2ccc(Cl)cc12 [Example 182, N-(2-(2-(5-chloro-1H-indol-3-yl)propan-2-yl)phenyl)-4-(3-(piperazin-1-yl)propoxy)benzenesulfonamide] | 1000 to 10000 | – | – | – |
